# Results as given in patent publication US9585864B2, “Anticancer formulation” (National Dong Hwa University, priority 2010, dated 2017).
# How the values were obtained:
# [1] = test system: Nur77; assay: RT-PCR of orphan receptor Nur77 mRNA expression in RG2 cells; assay type: cell-based, rat; conditions: IC50 concentration of z-Bdph, 0, 0.5, 1, 3 and 6 h
# Description: To confirm the results of the oligodeoxynucleotide-based microarray analysis, expression of the orphan receptors NOR-1, Nurr1, and Nur77 was examined in z-Bdph-treated RG2 cells by RT-PCR.
# RG2 cells were incubated with IC50 concentration of z-Bdph for various time periods (0, 0.5, 1, 3, and 6 h). After incubation, cells were collected and total RNA isolated. Expression of GADPH was used as an internal control.
# [2] = test system: Nur77 in DBTRG-05NG cells (human GBM cells); assay: Nur77 translocation by immunostaining, fluorescence microscopy; assay type: cell-based; conditions: 100 μg/mL, 24 hours
# Description: Whether translocation of Nur77 occurred in response to z-Bdph was examined. DBTRG-05NG cells (human GBM cells) were treated with Bdph (100 μg/mL) for 24 hours, then immunostained with anti-Nur77 antibody followed by corresponding Rhodamine-conjugated anti-IgG secondary antibody. Simultaneously, cells were stained with DAPI to display the nuclei. The fluorescent images were visualized with a fluorescence microscope.
# [3] = test system: JNK, AKT, ERK; assay: Western blot of signaling pathway phosphorylation in RG2 cells; assay type: cell-based, rat; conditions: 100 μg/ml, treatment for 1 hour
# Description: Finally, signaling pathways involved in z-Bdph-induced Nur77 gene expression were investigated. RG2 cells were treated with Bdph (100 μg/ml) for various time periods (0, 15, 30, 60, and 180 mins).
# [4] = test system: DBTRG-05MG cells (human GBM); assay: Matrigel invasion chamber and PET membrane migration assay; assay type: cell-based; conditions: 24 hours
# Description: The invasion of DBTRG-05MG cells was examined using a BioCoat matrigel invasion chamber system (BD Bioscience, Bedford, Mass.). The BD matrigel Matrix is composed of laminin, collagen IV, nidogen/entrctin, and proteoglycan on polyethylene terephthalate (PET) membranes containing 8 μm pores. In the in vitro migration assay, low pore density PET track-etched membrane on Falcon culture insert (BD Bioscience) was applied. The membrane was placed between the upper and lower wells of a Matrigel chamber or Falcon culture inserts. The cells were first resuspended in PRMI 1640 containing 10% fetal bovine serum and seeded into the upper wells of the chamber (50,000 cells per well). After incubating for 24 hours at 37° C., the cells that invaded or migrated through the membrane were stained with Liu stain (Handsel Technologies, Inc., Taipei, Taiwan) and counted under a microscopy. Each experiment was repeated thrice.
# [5] = test system: Axl receptor tyrosine kinase (RTK); assay: RT-PCR and Western blot of Axl expression in GBM cells; assay type: cell-based
# Description: Reverse transcriptase-polymerase chain reaction (RT-PCR) was used to examine the effect of z-Bdph on the gene expression profile in GBM cells to elucidate the possible mechanisms of z-Bdph's inhibition of malignant brain tumor.
# Western Blot assays were also carried out to examine the Axl protein level of the GBM cells in the presence of z-Bdph.
structure (smiles),measurement,setting,value
"CCC/C=C1\OC(=O)c2ccccc21 [z-Bdph, (Z)-n-butylidenephthalide]",mRNA expression of Nur77,[1],induced in the cells in a time-dependent manner
same,translocation of Nur77,[2],Nur77 was translocated from the nucleus to the cytoplasm
same,"phosphorylation of JNK, AKT, ERK",[3],"JNK, AKT, ERK were significantly phosphorylated"
same,invasion of DBTRG-05MG cells,[4]; BioCoat matrigel invasion chamber,inhibited migration and invasion of DBTRG-05MG cells in a dose dependent manner
same,migration of DBTRG-05MG cells,[4]; PET track-etched membrane,inhibited migration and invasion of DBTRG-05MG cells in a dose dependent manner
same,mRNA expression of Axl receptor tyrosine kinase,[5]; RT-PCR,down-regulated
same,Axl protein level,[5]; Western blot,reduced
